Experimental data from patent publication US9707267B2, “Beta-turn peptidomimetic cyclic compounds for treating dry eye” (Mimetogen Pharmaceuticals, Inc., priority 2008, dated 2017).

Tests used:
p42/44 MAPK = assay: Activation of p42/44 MAPK in goblet cells, Western blot (Example 2); assay type: cell-based, rat; details: 5 minutes, phospho-MAPK relative to actin
Description: The activation of p42/44 MAPK was examined using Western blot techniques. Goblet cells were serum starved in serum-free RPMI for 4-6 hrs prior to the addition of PMA (100 nM), NGF (1 or 10 nM), or MIM-D3 (10 or 50 μM) for 5 minutes at 37° C. After, cells were rinsed once in cold PBS, scraped in 100 μL of 1×SDS-PAGE sample buffer [62.5 mM Tris-HCl pH 6.8, 10% glycerol, 2% SDS, 5% β-mercaptoethanol, 0.02 mg/mL bromophenol blue] and sonicated for 20 minutes. The homogenates were centrifuged at 14,900 g for 15 min at 4° C. Proteins in a […] of the supernatant were separated by SDS-PAGE (8% acrylamide gels) and transferred to nitrocellulose membranes. The membranes were blocked for 2 hours in 5% non-fat dried milk in buffer containing 20 mM Tris-HCl, pH 8.0, 150 mM NaCl, and 0.01% Tween-20 (TBST). The blots were then probed with an antibody directed against the phosphorylated form of MAPK1/2 (Calbiochem, San Diego, Calif.) at 0.1 μg/mL in TBST containing 5% BSA overnight at 4° C., followed by a 1 hour incubation in HRP-conjugated secondary anti-mouse antibody (Sigma, St. Louis, Mo.) at room temperature in TBST containing 5% non-fat dried milk. Immunoreactive bands were visualized using the enhanced chemiluminescence method (Perkin Elmer, Waltham, Mass.). The blots were stripped at 55° C. for 30 minutes in stripping buffer [62.5 mM Tris-HCl pH 6.8, 2% SDS, 0.1M β-mercaptoethanol] followed by re-probing with an antibody directed against actin (1:5000 dilution, Sigma, St. Louis, Mo.) in TBST containing 5% non-fat dried milk and incubation in HRP-conjugated secondary anti-rabbit antibody. The immunoreactive bands were digitally scanned on an EPSON scanner and analyzed using NIH ImageJ v1.38x. The amount of phosphorylated MAPK in each sample was standardized to the amount of total actin protein in the sample.
To determine if compound D3 and NGF induced glycoconjugates secretion via activation of the MAPK pathway, cultured goblet cells from 3 independent rats were stimulated by 10 and 50 μM compound D3, 1 and 10 nM NGF or PMA (100 nM, the positive control) for 5 minutes and MAPK activity was measured by western blot analysis. A representative western blot from 3 independent rat goblet cell cultures is shown in FIG. 9, and the quantification is shown in FIG. 10. There was a statistically significant effect of treatment on MAPK activation (P<0.0001). Compound D3 increased MAPK activity above basal by 2.5±0.3 fold at 10 μM and 2.2±0.5 fold at 50 μM and NGF increased MAPK activity by 2.8±0.5 at 1 nM (P<0.05) and 1.7±0.2 at 10 nM.

cultured goblet cells = assay: Goblet cell proliferation, Alamar Blue (Example 2); assay type: cell-based, rat; details: serum-free media
Description: The culturing of conjunctival goblet cells from explant cultures was as previously described in Shatos, M. et al., “Isolation, Characterization, and Propagation of Rat Conjunctival Goblet Cells In Vitro,” IOVS 42:1455-1464 (2001), the entire content of which is incorporated herein by reference. The tissue was finely minced and individual pieces were anchored onto scored 6-well cultures dishes in 0.5 mL of complete RPMI-1640 (supplemented with 10% FBS, 2 mM glutamine and 100 μg/mL penicillin-streptomycin) and incubated at 37° C. in a humidified 5% CO2-atmosphere. Explant cultures were refed every 2 days. Within a few days, goblet cells migrated from the pieces and began to proliferate. After approximately one week, the tissue plugs were removed and the goblet cells were allowed to grow to confluence. […]
Cell proliferation was measured using Alamar Blue from Biosource (Invitrogen Corporation, Carlsbad, Calif.) according to the manufacture's protocol. […] After 24 hours, 10% Alamar Blue was added for 6 hours and the absorbance was read at 570 and 600 nm on a Benchmark Plus (Biorad). The percentage of Alamar Blue reduction was calculated according to the manufacture's instructions. […]

[1] = test system: Scopolamine Induced Rat Dry Eye Model; assay: Scopolamine induced rat dry eye model, corneal staining (Example 5); assay type: in vivo; details: for Corneal Staining: score 0 to 4, ± SD
Description: Dry eye was induced using scopolamine hydrobromide (Sigma-Aldrich, St. Louis, Mo.), which was continuously and systemically delivered to the animals via an osmotic pump (2ML4 Alzet®; CedarLane, Burlington, Ontario) filled with scopolamine and implanted subcutaneously in the mid dorsal area between the scapulae. Scopolamine was delivered for a twenty-eight day period at 12.5 mg/day, which translated to 30.0±1.5 mg/kg via osmotic pump.
Treatments for G2-G6 continued daily for seventeen days (up to an including day twenty-one). Thereafter, treatments were terminated but the study continued for another week. During treatment, each animal was anesthetized in an isoflurane chamber. Once asleep, each animal received a 5 μL topical instillation of test article into the lower conjunctival sac of both eyes using a calibrated micropipette. If a clinical endpoint was also being tested, the test article was topically instilled at the end of the testing.
Immediately following TBUT assessment, the clinical signs of corneal dryness were evaluated by fluorescein staining of the cornea and was tested on day 13 (after 8 daily treatments), day 21 (after 16 daily treatments), and day 28 (after treatment was stopped for 7 days). A drop of a 0.2% sodium fluorescein solution made up in sterile saline was instilled in the upper conjunctival sac of the anaesthetized animal. The cornea was thereafter observed under blue light using a Portable Slit Lamp ophthalmoscope with blue cobalt filter (Reichert Ophthalmic Instruments, Depew, N.Y.) two to three minutes after fluorescein instillation. For each animal, the punctate fluorescein-stained area of the cornea was recorded in a masked fashion. The score of this test was graded from 0 to 4, where 0 is equal to no staining, 1 is less than 25% surface staining, 2 is 25-50% surface staining, 3 is 50-75% surface staining, and 4 is greater than 75% surface staining.

Row | Molecule | MAPK activity above basal (p42/44 MAPK; 10 μM) [fold] | MAPK activity above basal (p42/44 MAPK; 50 μM) [fold] | goblet cell proliferation (in words) (cultured goblet cells; concentrations up to 100 μM, by day four) | Corneal Staining ([1]; 0.4% topical 1× daily Days 5-21, Day 13) [Score] | Corneal Staining ([1]; 0.4% topical 1× daily Days 5-21, Day 21) [Score] | Corneal Staining ([1]; 0.4% topical 1× daily Days 5-21, Day 28 (7 days after treatment stopped)) [Score] | changes in corneal staining at Day 28 as compared to Day 13 (in words) ([1]; 1% dose vs untreated and saline control groups) | Corneal Staining ([1]; 1.0% topical 1× daily Days 5-21, Day 13) [Score] | Corneal Staining ([1]; 1.0% topical 1× daily Days 5-21, Day 21) [Score] | Corneal Staining ([1]; 1.0% topical 1× daily Days 5-21, Day 28 (7 days after treatment stopped)) [Score] | Corneal Staining ([1]; 2.5% topical 1× daily Days 5-21, Day 13) [Score] | Corneal Staining ([1]; 2.5% topical 1× daily Days 5-21, Day 21) [Score] | Corneal Staining ([1]; 2.5% topical 1× daily Days 5-21, Day 28 (7 days after treatment stopped)) [Score] | MAPK activity above basal (p42/44 MAPK; 1 nM) [fold] | MAPK activity above basal (p42/44 MAPK; 10 nM) [fold] | goblet cell proliferation (in words) (cultured goblet cells; NGF 10 pM to 10 nM, up to day four) | Corneal Staining ([1]; 0.00053% topical 1× daily Days 5-21, Day 13) [Score] | Corneal Staining ([1]; 0.00053% topical 1× daily Days 5-21, Day 21) [Score] | Corneal Staining ([1]; 0.00053% topical 1× daily Days 5-21, Day 28 (7 days after treatment stopped)) [Score]
1 | NCCCC[C@@H]1NC(=O)[C@H](CCC(=O)O)NC(=O)c2cc([N+](=O)[O-])ccc2OCCC(C(=O)NCC(=O)O)NC1=O (stereo partly shown) [Compound D3] | 2.5±0.3 | 2.2±0.5 | did not stimulate goblet cell proliferation | 2.7 ± 0.4 | 2.1 ± 0.4 | 2.4 ± 0.7 | statistically significantly improved corneal staining | 2.8 ± 0.6 | 2.3 ± 0.6 | 1.3±0.3 | 2.1 ± 0.7 | 2.1 ± 1.0 | 2.6 ± 0.4 | – | – | – | – | – | –
2 | NGF: nerve growth factor (recombinant human), positive control | – | – | – | – | – | – | – | – | – | – | – | – | – | 2.8±0.5 | 1.7±0.2 | did not increase proliferation | 2.6 ± 0.5 | 2.3 ± 0.6 | 2.2 ± 0.3
